Here are results for one compound from patent US12115251B2, “Hydrocortisone acetate suppository formulation for treatment of disease” (Cristcot LLC, priority 2015, dated 2024).

The format of this data set is physicochemical. As for the experimental part: In order to assess the API release profile from the prototypes in Example 4 to identify a lead formulation, a robust dissolution method was developed. Solubility studies were performed on the API for the selection of dissolution media. For these studies, the active concentration of the dissolution media was 0.1 milligrams per milliliter (mg/mL).
According to USP guidelines (on sink conditions) the solubility needs to be at least 3 times the proposed active concentration. […] The studies next turned to the use of higher hydrocortisone acetate concentrations (0.3 mg/mL).
In order to avoid ionization of the hydrocortisone acetate in the dissolution media, a buffer of pH 5.0 was used in combination with 5% w/v SLS. The final composition of the dissolution media was 5% w/v SLS:acetate buffer (pH 5.0) in 70:30 combination with the pH of the final combination adjusted to 6.8-7.0.

Regarding `CC(=O)OCC(=O)[C@@]1(O)CC[C@H]2[C@@H]3CCC4=CC(=O)CC[C@]4(C)[C@H]3[C@@H](O)C[C@@]21C` [hydrocortisone acetate], the average recovered solubility is 98.4%. In addition, the “% Solubility API” value (pH 7.2) is given as 4.1%.
